BindingDB's records for doi:10.1021/jm00085a017 (Institute of Research, 1992)

Assay: Inhibition of the release of Alpha-amylase from rat pancreatic acinar cells.
With `CCN(CC)CCOC(=O)C(C)(c1ccccc1)C1CCCCC1` (centres undefined) the IC50 was 52 nM.
For `CN(C)CCCOC(=O)C(C)(c1ccccc1)C1CCCCC1` (centres undefined), the IC50 was 10 nM.
For `CCN(CC)CCCCCOC(=O)C(C)(c1ccccc1)C1CCCCC1` (centres undefined), the IC50 was 2700 nM.
`CCN(CC)CCCOC(=O)C(C)(c1ccccc1)C1CCCCC1` (centres undefined) showed an IC50 of 21 nM.
